How the values were obtained:
[1] = target: T1, Keap1/Nrf2 (Homo sapiens, UniProt Q14145); assay: Inhibition of full length Flag/His-tagged Keap1 kelch domain (unknown origin)/full length Avi-tagged Nrf2 (unknown origin) interaction after 2.25 hrs by TR-FRET assay; format: protein assay
[2] = target: T1, Keap1/Nrf2; assay: Inhibition of Keap1 kelch domain (unknow origin)/Nrf2-ETGE peptide (unknown origin) interaction by fluorescence polarization assay; format: protein assay
[3] = system: MDR1; assay: Efflux ratio of apparent permeability in MDCK-MDR1 cells at 10 uM up to 120 mins; format: ADME, cell-based, Canis lupus familiaris; settings: dog
[4] = target: T1, Keap1/Nrf2; assay: Inhibition of Keap1/NRF2 interaction in human BEAS-2B cells assessed as upregulation of NQ01 after 48 hrs by MTT assay; format: cell-based
[5] = target: T2, Kelch-like ECH-associated protein 1 (Homo sapiens, UniProt Q14145); assay: Inhibition of human Keap1 kelch domain (321 to 609 residues) binding to TAMRA-labeled Nrf2-ETGE peptide after 1 hr by fluorescence polarization assay
[6] = target: T2, Kelch-like ECH-associated protein 1; assay: Activation of human GST-tagged Keap1-DC (321 to 609 residues) expressed in human Huh transformed cells after 16 hrs by ARE-based steady-glo luciferase reporter gene assay; format: cell-based
[7] = Ratio of unbound drug level in mouse brain to plasma; format: ADME; settings: read-out: K(p,uu,brain)
[8] = Ratio of unbound drug level in Mdr1a/1b/Bcrp knock-out mouse brain to plasma; format: ADME; settings: read-out: K(p,uu,brain)

T1 sequence (Q16236 whole entry, the tested form may be a part): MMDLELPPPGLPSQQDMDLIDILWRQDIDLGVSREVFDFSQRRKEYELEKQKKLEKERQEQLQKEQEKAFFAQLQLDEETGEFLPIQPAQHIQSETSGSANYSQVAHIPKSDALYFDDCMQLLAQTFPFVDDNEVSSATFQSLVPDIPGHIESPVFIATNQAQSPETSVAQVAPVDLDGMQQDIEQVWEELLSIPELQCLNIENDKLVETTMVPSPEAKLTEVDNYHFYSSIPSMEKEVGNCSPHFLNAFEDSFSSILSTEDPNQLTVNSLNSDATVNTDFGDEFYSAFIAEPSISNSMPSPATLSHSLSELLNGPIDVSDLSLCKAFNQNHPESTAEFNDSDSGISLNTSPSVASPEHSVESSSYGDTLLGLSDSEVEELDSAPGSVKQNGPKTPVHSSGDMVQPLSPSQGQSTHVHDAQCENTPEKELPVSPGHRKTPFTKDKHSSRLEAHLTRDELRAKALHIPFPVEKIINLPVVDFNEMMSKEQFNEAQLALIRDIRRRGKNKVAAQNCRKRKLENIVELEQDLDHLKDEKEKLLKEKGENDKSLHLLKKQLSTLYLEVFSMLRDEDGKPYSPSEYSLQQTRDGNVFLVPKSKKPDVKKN
T1 sequence (Q14145 whole entry, the tested form may be a part): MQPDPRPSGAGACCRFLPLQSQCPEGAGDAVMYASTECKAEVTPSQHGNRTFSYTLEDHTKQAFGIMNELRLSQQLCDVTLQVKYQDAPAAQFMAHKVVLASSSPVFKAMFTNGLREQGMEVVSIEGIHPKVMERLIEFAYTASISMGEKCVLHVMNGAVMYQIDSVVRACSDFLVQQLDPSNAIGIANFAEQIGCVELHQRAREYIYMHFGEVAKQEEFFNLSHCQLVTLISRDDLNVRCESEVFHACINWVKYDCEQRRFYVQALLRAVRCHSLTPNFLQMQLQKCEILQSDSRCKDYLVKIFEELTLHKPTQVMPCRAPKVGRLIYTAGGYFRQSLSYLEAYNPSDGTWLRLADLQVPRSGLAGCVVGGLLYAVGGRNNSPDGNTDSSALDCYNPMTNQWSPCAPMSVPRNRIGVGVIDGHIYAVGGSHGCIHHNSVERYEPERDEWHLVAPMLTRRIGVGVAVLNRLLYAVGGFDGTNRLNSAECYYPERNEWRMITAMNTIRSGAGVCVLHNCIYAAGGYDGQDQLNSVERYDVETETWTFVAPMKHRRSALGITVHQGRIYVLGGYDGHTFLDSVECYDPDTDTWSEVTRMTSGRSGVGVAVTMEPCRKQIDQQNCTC
T2 sequence (Q14145 whole entry, the tested form may be a part): as above

Row | IC50 [2] [nM] | efflux ratio at 2 h, 10 µM [3] | Kp uu [7] | SMILES | further results
1 | 1100 | 7.5 | – | O=C(O)[C@H]1CCCC[C@H]1C(=O)N1CCc2ccccc2[C@H]1CN1Cc2ccccc2C1=O | –
2 | > 100000 | 0.7 | 0.9 | O=C(O)[C@H]1CCCC[C@H]1C(=O)N1CCc2ccccc2[C@H]1Cc1ccccc1 | –

The remaining lines, values behind:

Row | SMILES | IC50 [2] [nM] | efflux ratio at 2 h, 10 µM [3] | Kp uu [7] | further results
3 | C[C@H](Oc1cccc(-c2cccc(-n3ncc(C(=O)O)c3[C@@H]3C[C@H]3c3cn(C)nn3)c2)c1)C1CCCCC1 | – | – | – | IC50 [1]: < 10 nM
4 | CCCC[C@@H]1CCCN1C(=O)c1cccc(-c2cccc(-n3ncc(C(=O)O)c3C3CC3)c2)c1 | – | – | – | EC50 [4]: 79 nM; IC50 [5]: 10 to 100 nM
5 | O=C(NCc1ccccn1)Nc1nnc(-c2ccco2)o1 | – | – | – | EC2 [6]: 1.36 µM
6 | O=C1c2ccccc2C(=O)N1C[C@@H]1c2ccccc2CCN1C(=O)C1CCCCC1 | > 100000 | 0.7 | 0.3 | –
7 | O=C(O)[C@H]1CCCC[C@H]1C(=O)N1CCc2ccccc2[C@H]1CN1C(=O)c2ccccc2C1=O | – | – | < 0.01 | Kp uu [8]: 0.4
8 | O=C(O)[C@H]1NCCC[C@H]1C(=O)N1CCc2ccccc2[C@H]1CN1C(=O)c2ccccc2C1=O | – | – | < 0.01 | –

Source: ChEMBL document CHEMBL4145572, “Non-covalent Small-Molecule Kelch-like ECH-Associated Protein 1-Nuclear Factor Erythroid 2-Related Factor 2 (Keap1-Nrf2) Inhibitors and Their Potential for Targeting Central Nervous System Diseases” (J Med Chem, 2018)
